{"source": "patent US6391900B1", "about": "“Cytotoxic tris(oxazole)-containing macrolides” (Instituto Biomar S.A., priority 1998, dated 2002)", "key": {"[1]": {"test_system": "P-388 (suspension culture of a lymphoid neoplasm from DBA/2 mouse)", "experiment": "in vitro cytotoxic assay, P-388 cells", "assay_type": "cell-based", "settings": "P388, 72 h, three days of incubation, approximate IC50 by growth vs control wells", "procedure": "(§1) Cells were maintained in logarithmic phase of growth in Eagle's Minimum Essential Medium, with Earle's Balanced Salts, with 2.0 mM L-glutamine, with non-essential amino acids, without sodium bicarbonate EMEM/neaa); supplemented with 10% Fetal Calf Serum (FCS), 10^−2 M sodium bicarbonate and 0.1 g/l penicillin-G+streptomycin sulfate.\n(§2) A screening procedure has been carried out to determine and compare the antitumor activity of these compounds, using an adapted form of the method described by Bergeron et al. (Reference 5). The antitumor cells employed were P-388 (suspension culture of a lymphoid neoplasm from DBA/2 mouse), A-549 (monolayer culture of a human lung carcinoma), HT-29 (monolayer culture of a human colon carcinoma) and MEL-28 (monolayer culture of a human melanoma).\n(§3) P-139 cells were seeded into 16 mm wells at 1×10^4 sells per well in 1 ml aliquots of MEM SFCS containing the indicated concentration of drug. A separate set of cultures without drug was seeded as control growth to ensure that cells remained in exponential phase of growth. All determinations were carried out in duplicate. After three days of incubation at 37° C., 10% CO2 in a 98% humid atmosphere, an approximately IC50 was determined by comparing the growth in wells with drug to the growth in wells control."}, "[2]": {"test_system": "A-549 (monolayer culture of a human lung carcinoma)", "experiment": "in vitro cytotoxic assay, A-549 cells", "assay_type": "cell-based", "settings": "A549, 72 h, three days of incubation, Crystal Violet staining, approximate IC50", "procedure": "as §1, §2\nas §3, with “A-549, HT-29 and MEL-28” for “P-139”, “2×10^4 cells” for “1×10^4 sells”, “10FCS” for “SFCS”, “the wells were stained with 0.1% Crystal Violet. An” for “an”"}, "[3]": {"test_system": "HT-29 (monolayer culture of a human colon carcinoma)", "experiment": "in vitro cytotoxic assay, HT-29 cells", "assay_type": "cell-based", "settings": "72 h, three days of incubation, Crystal Violet staining, approximate IC50", "procedure": "as §1, §2\nas §3, with “A-549, HT-29 and MEL-28” for “P-139”, “2×10^4 cells” for “1×10^4 sells”, “10FCS” for “SFCS”, “the wells were stained with 0.1% Crystal Violet. An” for “an”"}, "[4]": {"test_system": "MEL-28 (monolayer culture of a human melanoma)", "experiment": "in vitro cytotoxic assay, MEL-28 cells", "assay_type": "cell-based", "settings": "SK-MEL-28, 72 h, three days of incubation, Crystal Violet staining, approximate IC50", "procedure": "as §1, §2\nas §3, with “A-549, HT-29 and MEL-28” for “P-139”, “2×10^4 cells” for “1×10^4 sells”, “10FCS” for “SFCS”, “the wells were stained with 0.1% Crystal Violet. An” for “an”"}, "[5]": {"test_system": "solid tumors like A-549, HT-29 and MEL-28", "experiment": "in vitro antitumor selectivity across the cytotoxicity panel", "assay_type": "cell-based, human", "settings": "solid tumor lines A-549, HT-29, MEL-28 compared with P-388", "procedure": "as §2, §3\nA-549, HT-29 and MEL-28 cells were seeded into 16 mm wells at 2×10^4 cells per well in 1 ml aliquots of MEM 10FCS containing the indicated concentration of drug. A separate set of cultures without drug was seeded as control growth to ensure that cells remained in exponential phase of growth. […] An approximately IC50 was determined by comparing the growth in wells with drug to the growth in wells control."}}, "note": "pIC50: −log10 of the molar value.", "data": [{"smiles": "COC(CC1OC(=O)CC(OC(N)=O)CC(C)CC(O)C(C)C(OC)c2coc(n2)-c2coc(n2)-c2coc(n2)/C=C/CC(OC)C1C)C(C)CCC(=O)C(C)C(OC)C(C)CC=O", "note": "(centres unmarked) [TH-2]", "values": [{"measurement": "pIC50", "setting": "[1]", "result": 7.96}, {"measurement": "pIC50", "setting": "[2]", "result": 8.70}, {"measurement": "pIC50", "setting": "[3]", "result": 8.70}, {"measurement": "pIC50", "setting": "[4]", "result": 8.70}, {"measurement": "in vitro antitumor selectivity for solid tumors", "setting": "[5]", "result": "in vitro antitumor selectivity for solid timors"}]}]}
